Literature values, collected in patent publication US12115173B2 (Elba Laboratories, priority 2021, dated 2024).

For `O=C(O)CO` [glycolic acid], which pKa is on record?
The pKa was “about 3.8”.
